From patent publication US10030016B2 (Sunesis Pharmaceuticals, Inc., priority 2009, dated 2018) come the findings set out here.

For assay [1], the system named is phospho-akt (Thr308) in PC-3 cells. Put plainly: Inhibition of phospho-akt (Thr308) in PC-3 cells, MSD phospho-akt 308 ELISA kit. Type of assay: cell-based. Particulars: 2 hours, no serum, read-out: EC50. Put shortly: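 Read-out is MSD electrochemiluminescence of Akt phosphorylated at Thr308 in lysates of PC-3 cells treated 2 h with compound in serum-free medium. Wortmannin at 5 μM defined the low control and DMSO the high control.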
Background: An ELISA detects its analyte on a solid surface through an enzyme-linked reagent.

A further assay addresses PDK1 (Homo sapiens (Human), UniProt O15530). Description: PDK1 kinase assay (coupled PDK1/AKT/FAM-crosstide assay, IMAP fluorescence polarization). Type of assay: biochemical. Put shortly:
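GST-tagged PDK1 (aa 51-359, 0.75 nM) was coupled to unphosphorylated GST-AKT2 140-467-PIFtide (10 nM) and 100 nM FAM-crosstide at 40 μM ATP, in Tris pH 7.2 buffer, for 30 min at 25 °C. Crosstide phosphorylation was read by IMAP fluorescence polarization (ΔmP) and fitted with a 4-parameter curve.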
For orientation: In fluorescence polarisation assays a small probe gives low polarisation when free and higher when bound to something large.

[2] abbreviates: Homo sapiens, inhibition of P308 Akt in PC-3 cells, MSD.
Where [3] appears, read: inhibition of phospo-PDK1 in vitro.
Where [4] appears, read: Homo sapiens, inhibition of P308 Akt in PC-3 cells using MSD.
[5] abbreviates: Homo sapiens, PC-3, 2 h, inhibition of P308 Akt in PC-3 cells, MSD.

Structures can show the parent of a compound that is named as a salt. Where two headings read alike, the source gives them in different places. A value given as a limit tells only on which side of the number the result lay.

Chain of PDK1 (O15530 51-359): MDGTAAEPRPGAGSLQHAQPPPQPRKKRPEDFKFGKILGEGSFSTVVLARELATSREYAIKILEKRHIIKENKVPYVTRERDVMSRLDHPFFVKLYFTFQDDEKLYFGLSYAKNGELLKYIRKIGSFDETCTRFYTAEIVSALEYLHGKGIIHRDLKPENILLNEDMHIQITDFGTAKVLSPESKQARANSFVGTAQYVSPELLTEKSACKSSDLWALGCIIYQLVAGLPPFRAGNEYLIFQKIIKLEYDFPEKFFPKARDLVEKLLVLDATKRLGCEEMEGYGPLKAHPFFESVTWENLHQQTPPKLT

Regarding `C[C@H](NC(=O)c1cccnc1N[C@@H](COc1ccc2[nH]c(=O)[nH]c2c1)c1cccc(Cl)c1)c1ccc(F)c(F)c1` [Example 16.9, 2-((R)-1-(3-chlorophenyl)-2-(2-oxo-2,3-dihydro-1H-benzo[d]imidazol-5-yloxy)ethylamino)-N-((S)-1-(3,4-difluorophenyl)ethyl)nicotinamide], the EC50 (commonly the concentration at which the effect is half-maximal) in assay [1] (setting [2]) is under 1000 nM. Further, the 50% inhibitory concentration (IC50) (as a rule, the point on the concentration scale where inhibition reaches its midpoint) against PDK1 (setting [3]) was in the range of 100 to 1000 nM.

Turning to `C[C@H](NC(=O)c1cc(C#N)cnc1NCc1ccc(-c2cnc(N)c(C(=O)NCCCN(C)C)n2)cc1)c1ccc(F)cc1` [Example 211], the EC50 in assay [1] (setting [4]) is 1000 to 10000 nM. The half-inhibitory concentration (IC50) against PDK1 (inhibition of PDK1 in vitro) is under 100 nM.

Regarding `Nc1n[nH]c2ncc(-c3ccc(CNc4ncc(C(F)(F)F)cc4C(=O)Nc4cccc(F)c4)cc3)cc12` [Example 262, 2-(4-(3-amino-1H-pyrazolo [3,4-b]pyridin-5-yl)benzylamino)-N-(3-fluorophenyl)-5-(trifluoromethyl) nicotinamide], the EC50 in assay [1] (setting [4]) was under 1000 nM. On PDK1 (inhibition of PDK1 in vitro), this compound registered an IC50 of under 100 nM.

Take `N#Cc1ccc(NC(=O)c2cc(C(F)(F)F)cnc2NCc2ccc(-c3cnc4[nH]nc(N)c4c3)cc2)cc1` [Example 300, 2-(4-(3-amino-1H-pyrazolo [3,4-b]pyridin-5-yl)benzylamino)-N-(4-cyanophenyl)-5-(trifluoromethyl)nicotinamide]: the EC50 in assay [1] (setting [4]) was under 1000 nM. Besides, at PDK1 (inhibition of PDK1 in vitro), the IC50 is under 100 nM.

For the compound `Nc1ncnc2ccc(-c3csc(CNc4ncccc4C(=O)NCc4ccc(F)c(F)c4)n3)cc12` [Ex. 6.7, 2-({[4-(4-aminoquinazolin-6-yl)-1,3-thiazol-2-yl]methyl}amino)-N-(3,4-difluoro-benzyl) pyridine-3-carboxamide], in assay [1] (setting [2]), the EC50 was over 10000 nM. Besides, the half-inhibitory concentration (IC50) against PDK1 (setting [3]) is under 100 nM.

For the compound “(S)-2-(4-(4-amino-7-methyl- 7H-pyrrolo[2,3-d]pyrimidin- 5-yl)benzylamino)-fluorophenyl) ethyl)nicotinamide [Example 97]”, the concentration giving a half-maximal response (EC50) in assay [1] (inhibition of P308 Akt in PC-3 cells using MSD) is under 1000 nM. Also, the concentration for half-maximal inhibition (IC50) against PDK1 (inhibition of PDK1 in vitro) is under 100 nM.

In the case of `CC(C)Oc1cc(CNc2ncccc2C(=O)NC(C)(C)C)cc(-c2c[nH]c3ncc(C(=O)NC4CC4)cc23)c1` [Example 4.1.15, 3-[3-({[(3-tert-butylcarbamoyl)pyridin-2-yl]amino}methyl)-5-(propan-2-yloxy)phenyl]-N-cyclopropyl-1H-pyrrolo[2,3-b] pyridine-5-carboxamide], the concentration giving a half-maximal response (EC50) in assay [1] (setting [2]) was 1000 to 10000 nM. On PDK1 (setting [3]), this compound had an IC50 of over 5000 nM.

On to `Nc1ncnc2ccc(-c3ccc(CNc4ncccc4C(=O)Nc4ccc(F)cc4)s3)cc12` [Example 3.47, 2-({[5-(4-aminoquinazolin-6-yl)thiophen-2-yl]methyl}amino)-N-(4-fluorophenyl)pyridine-3-carboxamide (TFA salt)], for which the EC50 in assay [1] (setting [2]) is under 1000 nM. Moreover, the IC50 against PDK1 (setting [3]) lay within 100 to 1000 nM.

Turning to `CC(N)CCc1nc(-c2ccc(CNc3ncc(C#N)nc3C(=O)N[C@@H](C)c3ccc(F)c(F)c3)cc2)cnc1N` (stereo partly drawn) [Example 87, 3-{4-[5-Amino-6-(3-amino-butyl)-pyrazin-2-yl]-benzylamino}-6-cyano-pyrazine-2-carboxylic acid [(S)-1-(3,4-difluoro-phenyl)-ethyl]-amide], the EC50 in assay [1] (setting [4]) is under 1000 nM. Moreover, at PDK1 (inhibition of PDK1 in vitro), the IC50 is under 100 nM.

`C[C@H](NC(=O)c1cccnc1NCc1ccc(-c2ccc3ncnc(N)c3c2)s1)c1ccccn1` [Example 3.58, (S)-2-(((5-(4-aminoquinazolin-6-yl)thiophen-2-yl)methyl)amino)-N-(1-(pyridin-2-yl)ethyl) nicotinamide (TFA salt)]: in assay [1] (setting [5]), the EC50 lay in the range of 1000 to 10000 nM. Besides, the IC50 against PDK1 (setting [3]) lay within 100 to 1000 nM.

In the case of `Nc1ncnc2ccc(-c3ccc(CNc4nccc5c4C(=O)N(Cc4ccc(F)c(F)c4)C5)s3)cc12` [Ex. 7.19, 4-({[5-(4-aminoquinazolin-6-yl)thiophen-2-yl]methyl}amino)-2-(3,4-difluorobenzyl)-1,2-dihydro-3H-pyrrole[3,4-c]pyridin-3-one], in assay [1] (setting [2]), the EC50 lay within 1000 to 10000 nM. In addition, the IC50 on PDK1 (setting [3]) was in the range of 100 to 1000 nM.

As for `CC(C)Oc1cc(CNc2ncccc2C(=O)NCc2ccc(F)c(F)c2)cc(-c2ccc3ncccc3c2)c1` [Example 5.4, N-(3,4-difluorobenzyl)-2-(3-isopropoxy-5-(quinolin-6-yl)benzylamino) nicotinamide], the EC50 in assay [1] (setting [5]) was over 10000 nM. The same compound showed a 50% inhibitory concentration (IC50) against PDK1 (setting [3]) of 1000 to 5000 nM.

`N#Cc1cnc(NCc2ccc(-c3cnc4[nH]nc(N)c4c3)cc2)c(C(=O)Nc2ccc(F)cc2)n1` [Example 29, 3-(4-(3-amino-1H-pyrazolo[3,4-b]pyridin-5-yl)benzylamino)-6-cyano-N-(4-fluorophenyl) pyrazine-2-carboxamide]: the concentration for a half-maximal effect (EC50) in assay [1] (setting [2]) is under 1000 nM. The compound further showed a half-maximal inhibitory concentration (IC50) at PDK1 (setting [3]) of under 100 nM.

Take `Cc1ccc(CNC(=O)c2cccnc2NCc2ccc(-c3ccc4ncnc(N)c4c3)s2)o1` [Example 3.17, 2-({[5-(4-aminoquinazolin-6-yl)thiophen-2-yl]methyl}amino)-N-[(5-methylfuran-2-yl)methyl] pyridine-3-carboxamide (TFA salt)]: the EC50 in assay [1] (setting [5]) is over 10000 nM. In addition, at PDK1 (setting [3]), the IC50 lay within 100 to 1000 nM.

As for `Nc1ncnc2ccc(-c3ccc(CNc4ncc(NS(=O)(=O)Cc5ccccc5)cc4C(=O)NCc4ccc(F)c(F)c4)s3)cc12` [Example 8.6.6, 2-({[5-(4-aminoquinazolin-6-yl)thiophen-2-yl]methyl}amino)-5-[(benzylsulfonyl)amino]-N-(3,4-difluorobenzyl) pyridine-3-carboxamide], the 50% effective concentration (EC50) in assay [1] (setting [2]) lay within 1000 to 10000 nM. The compound also came in with an IC50 against PDK1 (setting [3]) of 1000 to 5000 nM.

As to `CNc1ncnc2ccc(-c3ccc(CNc4ncccc4C(=O)NCc4ccc(F)c(F)c4)s3)cc12` [Example 4.24, N-(3,4-difluorobenzyl)-2-(((5-(4-(methylamino)quinazolin-6-yl)thiophen-2-yl)methyl)amino)nicotinamide], the concentration for a half-maximal effect (EC50) in assay [1] (setting [2]) was 1000 to 10000 nM. In addition, the IC50 against PDK1 (setting [3]) was under 100 nM.

Turning to `C[C@H](NC(=O)c1cc(C#N)cnc1NCc1ccc(-c2cnc(N)nc2)cc1)c1ccc(F)cc1` [Example 119, (S)-2-(4-(2-amino-pyrimidin-5-yl)benzylamino)-5-cyano-N-(1-(4-fluorophenyl)ethyl) nicotinamide], in assay [1] (setting [4]), the EC50 is over 10000 nM. Moreover, on PDK1 (inhibition of PDK1 in vitro), the IC50 was under 100 nM.

Take `C[C@H](NC(=O)c1cn(C)nc1NCc1ccc(-c2ccc3ncnc(N)c3c2)s1)c1ccc(F)c(F)c1` [Example 11.4, (S)-3-(((5-(4-aminoquinazolin-6-yl)thiophen-2-yl)methyl)amino)-N-(1-(3,4-difluorophenyl)ethyl) 1-methyl-1H-pyrazole-4-carboxamide]: the concentration for a half-maximal effect (EC50) in assay [1] (setting [2]) is 1000 to 10000 nM. Moreover, the 50% inhibitory concentration (IC50) against PDK1 (setting [3]) is under 100 nM.

In the case of `Nc1n[nH]c2ncc(-c3ccc(CNc4ncc(C(F)(F)F)cc4C(=O)Nc4cncc(F)c4)cc3)cc12` [Example 306, 2-(4-(3-amino-1H-pyrazolo [3,4-b]pyridin-5-yl)benzylamino)-N-(5-fluoropyridin-3-yl)-5-(trifluoromethyl)nicotinamide], the half-maximal effective concentration (EC50) in assay [1] (setting [4]) was under 1000 nM. The IC50 against PDK1 (inhibition of PDK1 in vitro) is under 100 nM.

On to `O=C(NCc1ccc(F)c(F)c1)c1cccnc1NCCOc1ccc2c(c1)[nH]c1ncccc12` [Example 21, 2-(2-(9H-pyrido[2,3-b]indol-7-yloxy)ethylamino)-N-(3,4-difluorobenzyl)nicotinamide], for which the concentration for a half-maximal effect (EC50) in assay [1] (setting [2]) is 1000 to 10000 nM. This compound also gave an IC50 against PDK1 (setting [3]) of under 100 nM.
